Laboratory results taken from patent US20230021442A1, “PHENOTHIAZINE FERROPTOSIS INHIBITOR, PREPARATION METHOD THEREFOR AND APPLICATION THEREOF” (CHENGDU HENGHAO INNOVATIVE SCIENCE AND TECHNOLOGY CO., LTD., priority 2019, published 2023).

Tested on: fibrosarcoma cell line
Assay: screening model for ferroptosis, MTT cell viability assay with ferroptosis inducer Erastin
Format: cell-based
Details: Erastin 10 μM; 72 h; average of three tests
Method: In this example, in order to study the inhibitor of ferroptosis, a screening model for ferroptosis was constructed in house, and the details are as follows:
The screening model for ferroptosis mainly used the MTT cell viability assay. First, the fibrosarcoma cell line was cultured in a dish, and the cells in the logarithmic growth phase were seeded in a 96-well plate in specific numbers (3000-10000 cells/well), 100 μL per well, and then cultured in an incubator at 37° C. and 5% CO2 to allow the cells to adhere. After 24 h, 100 μL of compounds at certain concentrations prepared in the indicated medium and the ferroptosis inducer Erastin (final concentration of 10 μM) were added, and wells in triplicate were set up for each compound to ensure the accuracy of the results. A negative control group, positive control group (5 μM of ferrostain-1), blank control group and solvent control group were also set. After dosing, cells were placed in the incubator and cultured for 72h. […] The next day, the absorbance value at 570 nm was detected with a microplate reader to calculate the inhibition rate of the drug on ferroptosis. Generally, the absorbance value of the control group should be between 0.8-1.2 as a normal value. After obtaining the absorbance value data, the average value of wells in triplicate was calculated, and the inhibition rate was calculated using the following formula: […]

EC50: 58 nM
SMILES: C=C(c1ccc2c(c1)Nc1ccccc1S2)c1cnc2c(cnn2C)c1 [Compound 28]
